Counter-ions that a name gives are not always drawn. Like-named read-outs stand apart in the source and are kept apart here.
Assays:
[1] = system: Enterococcus faecalis (ATCC 33186); assay: MIC determination, microbroth dilution; assay type: cell-based; settings: ATCC33186; Enterococcus faecalis (ATCC 33186); read-out: MIC E.f.
[2] = system: Staphylococcus aureus (ATCC 29213); assay: MIC determination, microbroth dilution; assay type: cell-based; settings: ATCC29213; Staphylococcus aureus (ATCC 29213); read-out: MIC S.a.
[3] = system: Streptococcus pneumoniae (R6); assay: MIC determination, microbroth dilution; assay type: cell-based
[4] = system: acinetobacter baumannii (ATCC 19606); assay: MIC determination, microbroth dilution; assay type: cell-based; settings: ATCC19606
[5] = system: Burkholderia cepacia (ATCC 25416); assay: MIC determination, microbroth dilution; assay type: cell-based; settings: Burkholderia cepacia
[6] = system: Escherichia coli (ATCC 700926); assay: MIC determination, microbroth dilution; assay type: cell-based; settings: ATCC700926; Escherichia coli (ATCC 700926); read-out: MIC E.c.
[7] = system: Klebsiella pneumoniae (ATCC 33495); assay: MIC determination, microbroth dilution; assay type: cell-based; settings: ATCC33495
[8] = system: Proteus vulgaris (ATCC 33420); assay: MIC determination, microbroth dilution; assay type: cell-based; settings: ATCC33420
[9] = system: Stenotrophomonas maltophilia (ATCC 13637); assay: MIC determination, microbroth dilution; assay type: cell-based; settings: ATCC13637; Stenotrophomonas maltophilia (ATCC 13637); read-out: MIC S.m.
[10] = system: Haemophilus influenza (ATCC 49247); assay: microbe, parasite or virus in culture; assay type: cell-based; settings: ATCC49247; Haemophilus influenza; 4 μg per disc; range of at least two experiments; read-out: Zone of inhibition H.i.
[11] = system: Neisseria meningitides (ATCC 13077); assay: Disc diffusion assay; assay type: cell-based; settings: ATCC13077, 4 μg per disc, read-out: Zone of inhibition N.m.
[12] = system: Neisseria gonorrhoeae (ATCC 49226); assay: Disc diffusion assay; assay type: cell-based; settings: ATCC49226, 4 μg per disc, read-out: Zone of inhibition N.g.
[13] = system: Neisseria gonorrhoeae (ATCC 49226); assay: Agar MIC determination (Alamar Blue); assay type: cell-based; settings: ATCC49226, agar MIC, read-out: MIC N.g.
Bacillus anthracis = assay: microbe, parasite or virus in culture; assay type: cell-based; settings: read-out: MIC B.a.
[14] = system: live vaccine strain (LVS) of Francisella tularensis; assay: microbe, parasite or virus in culture; assay type: cell-based; settings: Francisella tularensis, read-out: MIC F.t.
[15] = system: M. tuberculosis clinical isolates; assay: microbe, parasite or virus in culture; assay type: cell-based; settings: Mycobacterium tuberculosis, H37RV, read-out: MIC H37Rv
S. pneumoniae D39x = assay: Mouse challenge, mouse model of lung infection; assay type: in vivo; settings: p<0.02
Description: Mice were treated with a 5 mg/kg dose b.i.d. of spectinomycin (indicated as “SPC” in the figure) or compound 2 (the compound number refers to the compound number and associated structure shown in Table 1), or vehicle. (Panel B) The bacterial burden of mice at 18 hours post-challenge with S. pneumoniae D39x. (Panel C) Representative bioluminescent images of mice at 72 hours post challenge.
All experimental animal protocols were approved by the St. Jude Children's Research Hospital Institutional Animal Care and Use Committee. Seven week old, female BalbC/J mice (Jackson Labs, Bar Harbor, Me.) we utilized in these studies. All mice were maintained in BSL2 facilities and all experiments were done under inhaled isoflurane (2.5%). Bacteria (strain D39x) were introduced by intranasal administration of 2×10^7 CFU in 25 μL PBS. Mice received no treatment, plasmalyte A (vehicle control), ampicillin (100 mg/kg), spectinomycin (50, 25, 5 mg/kg) or the respective compounds (50, 25, 5 mg/kg) at dosages indicated. Antibiotics were administered in a volume of 100 μL by subcutaneous […] starting at 18 hours post challenge, a time point when the mice have developed pneumonia and bacteria have translocated into the bloodstream. Mice were subsequently dosed every 12 hours until 96 hours post challenge. Mice were monitored daily for signs of infection and weight loss. Differences in time to death were compared via Kaplan-Meier survival estimates. Bacterial density in blood was quantified at 24, 48, 72, and 96 hours post infection via blood collection, serial dilution, and plating. Groups were then compared by Mann-Whitney to determine statistical significance. At 8 days following challenge, surviving mice were euthanized and bacterial loads in lungs determined by homogenization followed by serial dilution and plating. In all instances, surviving mice had completely cleared bacteria from both the lungs and the bloodstream by this time point.
Compound 2 was tested for anti-pneumococcal activity in mice as described above. […]

Listeria monocytogenes = assay: MIC determination (Table 6); assay type: cell-based
Moraxella catarrhalis = assay: MIC determination (Table 6); assay type: cell-based

`CN[C@@H]1[C@H](O)[C@H](NC)[C@H]2O[C@]3(O)[C@H](O[C@@H]2[C@H]1O)O[C@H](C)C[C@@]3(O)CNCc1ccc(F)cc1` [compound 2, 3′-(R)-3′-[(4-fluoro)benzylaminomethyl)]dihydrospectinomycin Trihydrochloride] gave an MIC [1] of 12.5 to 25 µg/mL, an MIC [2] of 25 to 50 µg/mL and an MIC ([3]; Streptococcus pneumoniae (R6), read-out: MIC S. pn.) of 1.6 to 3.1 µg/mL. It also gave an MIC ([3]; Streptococcus pneumoniae, S. pneumoniae R6, Drug Susceptible, read-out: MIC R6) of 3.1 µg/mL, an MIC [4] greater than 200 µg/mL and an MIC ([5]; ATCC25416, read-out: MIC B.c., Burkholderia cepacia (ATCC 25416)) greater than 200 µg/mL. For the same compound, the MIC ([5]; ATCC25416, read-out: MIC B.c., Burkholderia cepacia, Table 6) was greater than 200 µg/mL, the MIC [6] was 25 µg/mL and the MIC [7] was 100 to 200 µg/mL. For the same compound, the MIC [8] was no less than 200 µg/mL, the MIC [9] was 25 µg/mL and the zone of inhibition at 4 µg/disc [10] was 17 to 19 mm. For the same compound, the zone of inhibition at 4 µg/disc [11] was 19 to 20 mm, the zone of inhibition at 4 µg/disc [12] was 16 to 19 mm and the MIC [13] was 25 µg/mL. It also gave an MIC (Bacillus anthracis) of 25 µg/mL, an MIC [14] of 1.6 to 3.1 µg/mL and an MIC [15] of 25 µg/mL. For the same compound, the survival (S. pneumoniae D39x; 5 mg/Kg BID subcutaneous, from 18 hours post intranasal challenge, vs vehicle and spectinomycin) was “significantly improved survival”, the “bacterial burden in the blood” value (S. pneumoniae D39x; 48 hours post-challenge, vs spectinomycin and vehicle) was “reduced significantly” and the MIC (Listeria monocytogenes) was 6.3 µg/mL. The MIC (Moraxella catarrhalis) was 3.1 µg/mL.

Reference: patent publication US10266544B2, “Aryl substituted aminomethyl spectinomycin analogs as antibacterial agents” (ST. JUDE CHILDREN'S RESEARCH HOSPITAL, INC., priority 2013, dated 2019)
